Legend:
Assay in all cases: relative viability (nuclei count vs DMSO), 5 days (fraction); higher = more cells survive
[1] = compound: CC1=CC=C(C=C1)C(=O)CN2C3=C(CCCC3)SC2=N [Pifithrin_alpha]
In short: (§1)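 Viability is treated-well nuclei as a fraction of vehicle-well nuclei, reported as the median across plates. Before counting, lung cancer cell lines were kept overnight at 37 °C in 1536-well plates, pinned with five √10-spaced library-drug doses on vehicle-anchored plates, and left 5 days without medium change, then fixed, permeabilised and Hoechst-stained in one step, imaged at 4× and counted by MetaXpress. A plate passed only if control CV was below 25% and at least one doubling occurred.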

[2] = compound: CNC(=O)c1ccccc1Sc1ccc2c(/C=C/c3ccccn3)n[nH]c2c1 [Axitinib]
In short: as §1

[3] = compound: Nc1nc(Nc2ccc3c(c2)CC[C@@H](N2CCCC2)CC3)nn1-c1cc2c(nn1)-c1ccccc1CCC2 [Bemcentinib]
In short: as §1

[4] = compound: CC1=CC=C(C=C1)C(=O)CN2C3=C(CCCC3)SC2=N [Pifithrin_alpha] + CC(=O)Nc1cccc(-n2c(=O)n(C3CC3)c(=O)c3c(Nc4ccc(I)cc4F)n(C)c(=O)c(C)c32)c1 [Trametinib] (partner 0.02 µM)
In short: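 Each reported value is a median over duplicate plates. It expresses relative viability: treated-well nuclei count divided by vehicle-well nuclei count. Lung cancer cell lines in 1536-well plates were dosed by pin tool a day after seeding, alone with one drug or with a fixed anchor-drug dose plus five library-drug doses (not always all listed) in √10 steps, and nuclei were counted after 5 days.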

NCI-H650
relative viability ([1]; 3.162 µM): 0.912 | relative viability ([1]; 10 µM): 1.07 | relative viability ([1]; 31.62 µM): 0.766 | relative viability ([1]; 100 µM): 0.863 | relative viability ([2]; 0.005 µM): 1.01 | relative viability ([2]; 0.01581 µM): 0.983 | relative viability ([2]; 0.05 µM): 0.892 | relative viability ([2]; 0.1581 µM): 1.1 | relative viability ([2]; 0.5 µM): 1.01 | relative viability ([3]; 0.04 µM): 0.866 | relative viability ([3]; 0.1265 µM): 1.01 | relative viability ([3]; 0.4 µM): 1.15 | relative viability ([3]; 1.265 µM): 0.838 | relative viability ([3]; 4 µM): 0.871 | relative viability ([4]; first compound 3.162 µM): 0.947 | relative viability ([4]; first compound 10 µM): 0.978 | relative viability ([4]; first compound 31.62 µM): 0.785 | relative viability ([4]; first compound 100 µM): 0.985

— the supplement of paper PMC10307832
